From patent US6828320B2, “Heterocyclic compounds” (SmithKline Beecham Corporation, priority 1996, dated 2004)
Counter-ions that a name gives are not always drawn. Like-named read-outs stand apart in the source and are kept apart here.

Experiments:
[1] = biological target: T1, c-erbB-2 (baculovirus expressed, recombinant intracellular domain) (Homo sapiens, UniProt P04626); assay: Substrate phosphorylation assay, c-erbB-2; type: biochemical
T1 construct: baculovirus expressed, recombinant constructs of the intracellular domains of c-erbB-2 and c-erbB-4; made in house
T1 sequence (P04626 676-1255 limits assumed): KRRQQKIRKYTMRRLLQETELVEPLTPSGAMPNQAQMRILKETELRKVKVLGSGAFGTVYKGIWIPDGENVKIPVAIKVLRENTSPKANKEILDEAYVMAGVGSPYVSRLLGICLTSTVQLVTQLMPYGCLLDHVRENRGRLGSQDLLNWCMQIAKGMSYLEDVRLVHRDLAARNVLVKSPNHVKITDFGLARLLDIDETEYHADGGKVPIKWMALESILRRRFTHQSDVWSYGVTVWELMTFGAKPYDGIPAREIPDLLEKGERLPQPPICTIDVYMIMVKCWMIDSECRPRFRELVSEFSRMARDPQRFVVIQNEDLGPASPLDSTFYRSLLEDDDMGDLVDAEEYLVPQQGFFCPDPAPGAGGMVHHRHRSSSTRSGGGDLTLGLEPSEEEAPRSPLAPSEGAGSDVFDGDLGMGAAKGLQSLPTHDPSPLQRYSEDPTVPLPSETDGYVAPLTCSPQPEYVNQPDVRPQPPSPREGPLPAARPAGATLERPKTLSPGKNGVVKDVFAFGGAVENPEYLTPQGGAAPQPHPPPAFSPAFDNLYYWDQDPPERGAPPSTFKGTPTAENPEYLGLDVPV
Description: (§1) The substrate phosphorylation assays use baculovirus expressed, recombinant constructs of the intracellular domains of c-erbB-2 and c-erbB-4 that are constitutively active and EGFr isolated from solubilised A431 cell membranes. The method measures the ability of the isolated enzymes to catalyse the transfer of the γ-phosphate from ATP onto tyrosine residues in a biotinylated synthetic peptide (Biotin-[…]. […] The reaction is stopped by the addition of EDTA (final concentration 0.15 mM) and a sample is transferred to a streptavidin-coated 96-well plate. The plate is washed and level of phosphotyrosine on the peptide is determined using a Europium-labelled antiphosphotyrosine antibody and quantified with a time-resolved fluorescence technique.

[2] = biological target: T2, c-erbB-4 (baculovirus expressed, recombinant intracellular domain) (Homo sapiens, UniProt Q15303); assay: Substrate phosphorylation assay, c-erbB-4; type: biochemical
T2 construct: baculovirus expressed, recombinant constructs of the intracellular domains of c-erbB-2 and c-erbB-4; made in house
T2 sequence (Q15303 676-1308 limits assumed): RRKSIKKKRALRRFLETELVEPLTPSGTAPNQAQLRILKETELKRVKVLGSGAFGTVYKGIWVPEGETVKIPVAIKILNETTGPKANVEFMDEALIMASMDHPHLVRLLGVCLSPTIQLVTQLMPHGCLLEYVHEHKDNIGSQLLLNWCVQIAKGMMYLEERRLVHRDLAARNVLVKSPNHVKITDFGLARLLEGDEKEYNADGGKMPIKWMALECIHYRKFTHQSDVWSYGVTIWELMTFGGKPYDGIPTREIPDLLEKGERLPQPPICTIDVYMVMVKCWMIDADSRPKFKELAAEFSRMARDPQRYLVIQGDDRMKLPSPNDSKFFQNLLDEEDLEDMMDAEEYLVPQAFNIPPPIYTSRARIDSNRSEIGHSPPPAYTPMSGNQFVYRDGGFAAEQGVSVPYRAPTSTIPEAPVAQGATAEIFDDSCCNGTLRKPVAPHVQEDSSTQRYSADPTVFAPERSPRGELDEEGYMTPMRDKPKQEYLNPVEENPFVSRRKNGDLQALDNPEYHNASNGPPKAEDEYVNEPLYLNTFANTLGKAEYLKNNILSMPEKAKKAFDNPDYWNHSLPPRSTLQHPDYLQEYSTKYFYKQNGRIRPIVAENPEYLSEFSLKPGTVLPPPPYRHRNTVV
Description: as §1

[3] = biological target: HB4a cell line transformed by over-expression of c-erbB-2 (Homo sapiens, UniProt P04626); assay: Cell proliferation assay, HB4a erbB-2; type: cell-based
HB4a cell line transformed by over-expression of c-erbB-2, sequence (P04626 whole entry, stated change not applied): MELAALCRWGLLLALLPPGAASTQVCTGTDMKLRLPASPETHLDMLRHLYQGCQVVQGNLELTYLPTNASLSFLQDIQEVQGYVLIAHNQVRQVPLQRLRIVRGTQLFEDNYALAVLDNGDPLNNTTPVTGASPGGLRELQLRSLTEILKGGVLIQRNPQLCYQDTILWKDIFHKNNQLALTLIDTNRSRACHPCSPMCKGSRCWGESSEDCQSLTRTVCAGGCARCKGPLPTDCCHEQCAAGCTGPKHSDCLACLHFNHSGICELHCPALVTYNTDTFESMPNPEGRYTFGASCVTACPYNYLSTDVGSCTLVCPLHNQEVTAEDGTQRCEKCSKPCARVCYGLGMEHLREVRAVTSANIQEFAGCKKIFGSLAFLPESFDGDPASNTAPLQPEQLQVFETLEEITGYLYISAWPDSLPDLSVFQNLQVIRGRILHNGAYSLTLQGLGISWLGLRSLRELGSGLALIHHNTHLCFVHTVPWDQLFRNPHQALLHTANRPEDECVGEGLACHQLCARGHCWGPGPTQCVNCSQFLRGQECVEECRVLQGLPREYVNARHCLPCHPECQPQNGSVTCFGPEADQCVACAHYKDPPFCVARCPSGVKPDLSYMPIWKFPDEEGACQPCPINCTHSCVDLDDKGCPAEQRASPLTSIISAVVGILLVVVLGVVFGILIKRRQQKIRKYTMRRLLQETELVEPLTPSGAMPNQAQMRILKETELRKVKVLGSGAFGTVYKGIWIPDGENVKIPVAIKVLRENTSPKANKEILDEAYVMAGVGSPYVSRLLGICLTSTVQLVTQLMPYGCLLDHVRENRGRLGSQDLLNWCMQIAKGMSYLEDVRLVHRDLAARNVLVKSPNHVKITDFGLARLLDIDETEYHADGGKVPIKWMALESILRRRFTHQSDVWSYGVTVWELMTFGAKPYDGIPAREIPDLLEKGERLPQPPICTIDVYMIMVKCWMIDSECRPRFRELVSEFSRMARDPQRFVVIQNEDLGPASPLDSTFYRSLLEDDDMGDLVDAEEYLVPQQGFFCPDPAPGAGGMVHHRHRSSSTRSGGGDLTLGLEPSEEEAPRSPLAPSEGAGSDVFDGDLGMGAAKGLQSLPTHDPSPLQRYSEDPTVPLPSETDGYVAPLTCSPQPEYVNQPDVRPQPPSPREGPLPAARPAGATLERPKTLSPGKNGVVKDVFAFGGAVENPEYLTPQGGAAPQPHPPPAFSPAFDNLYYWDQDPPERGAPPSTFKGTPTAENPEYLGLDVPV
Description: The cell proliferation assay uses an immortalised human breast epithelial cell line (HB4a) which has been transformed by over-expression of c-erbB-2. Growth of these cells in low serum is dependent upon the c-erbB-2 tyrosine kinase activity. […] Cells are plated at 3000/ well in 96-well plates in 0.1 ml medium and allowed to attach overnight. test compound is added in 0.1 ml medium, with a final concentration of 0.5% DMSO, and the plates incubated for 4 days at 37° C. The cells are then examined microscopically for evidence of morphological detransformation and cell mass is estimated by staining with methylene blue and measuring the absorbance at 620 nm. […] Activity against a range of naturally occurring EGFr or c-erbB-2 over-expressing human tumour cell lines (BT474-breast, HN5-head and neck, N87-gastric and Calu3-lung) is assessed with selected compounds by the same methodology.

[4] = system: HB4a cell line transfected with ras; assay: Cell proliferation assay, HB4a ras; type: cell-based, human; details: Homo sapiens, HB4a, 96 h, read-out: Cell Proliferation HB4a ras
[5] = biological target: T3, EGFr isolated from solubilised A431 cell membranes (Homo sapiens, UniProt P00533); assay: Substrate phosphorylation assay, EGFr; type: biochemical
T3 construct: EGFr isolated from solubilised A431 cell membranes; endogenous in cells; host or cells: A431 cell membranes (solubilised)
T3 sequence (P00533 25-1210): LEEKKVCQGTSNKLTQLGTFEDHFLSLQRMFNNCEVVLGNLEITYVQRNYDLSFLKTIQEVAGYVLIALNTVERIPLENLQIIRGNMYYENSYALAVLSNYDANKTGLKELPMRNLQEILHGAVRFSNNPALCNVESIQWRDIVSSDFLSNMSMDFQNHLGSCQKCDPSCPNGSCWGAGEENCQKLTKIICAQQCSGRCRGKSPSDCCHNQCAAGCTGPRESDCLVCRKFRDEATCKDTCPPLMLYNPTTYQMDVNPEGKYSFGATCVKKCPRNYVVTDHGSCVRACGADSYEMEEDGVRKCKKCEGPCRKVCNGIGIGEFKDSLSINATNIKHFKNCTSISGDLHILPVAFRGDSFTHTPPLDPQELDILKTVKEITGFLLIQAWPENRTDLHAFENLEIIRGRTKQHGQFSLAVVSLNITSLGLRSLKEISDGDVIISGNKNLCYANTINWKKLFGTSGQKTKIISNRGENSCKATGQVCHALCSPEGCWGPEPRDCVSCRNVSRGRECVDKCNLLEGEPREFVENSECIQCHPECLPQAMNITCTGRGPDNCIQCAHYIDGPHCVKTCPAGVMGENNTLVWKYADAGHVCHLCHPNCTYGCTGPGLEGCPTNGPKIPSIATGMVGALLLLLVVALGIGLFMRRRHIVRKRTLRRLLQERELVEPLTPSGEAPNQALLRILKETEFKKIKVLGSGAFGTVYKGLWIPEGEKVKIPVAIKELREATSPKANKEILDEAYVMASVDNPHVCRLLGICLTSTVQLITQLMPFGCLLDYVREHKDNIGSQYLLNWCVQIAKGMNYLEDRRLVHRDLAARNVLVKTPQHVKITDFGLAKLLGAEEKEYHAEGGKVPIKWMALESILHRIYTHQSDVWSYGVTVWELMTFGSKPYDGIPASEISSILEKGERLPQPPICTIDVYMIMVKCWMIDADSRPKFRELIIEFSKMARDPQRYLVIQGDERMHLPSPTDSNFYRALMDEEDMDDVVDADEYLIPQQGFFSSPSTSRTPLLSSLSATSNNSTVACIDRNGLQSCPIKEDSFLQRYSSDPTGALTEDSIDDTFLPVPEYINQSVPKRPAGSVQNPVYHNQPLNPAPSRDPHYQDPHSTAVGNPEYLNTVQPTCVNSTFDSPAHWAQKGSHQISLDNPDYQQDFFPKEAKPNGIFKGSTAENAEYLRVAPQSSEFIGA
Description: as §1

[6] = read-out: Substrate Phosphorylation erbB-2
[7] = 4 days at 37° C., methylene blue staining; read-out: Cell Proliferation HB4a erbB-2
[8] = 4 days at 37° C., methylene blue staining, general toxicity control
[9] = 30 minutes, room temperature, ATP and peptide at Km concentrations

Row | IC50 [1, 6] [nM] | IC50 [2] [nM] | GI50 [3, 7] [nM] | IC50 [5, 9] [nM] | IC50 [5] [nM] | IC50 [1] [nM] | GI50 ([3]; read-out: Cell Proliferation HB4a erbB-2; 4 days at 37° C., methylene blue staining) [nM] | SMILES | IC50 [4, 8] [µM] | IC50 [4] [µM]
1 | 20 | 5800 | 38000 |  |  |  |  | COC(=O)c1ccc(-c2ccc3ncnc(Nc4ccc(OCc5ccccc5)cc4)c3c2)o1 [Example 51, 5-(4-(4-Benzyloxy-phenylamino)-quinazolin-6-yl)-furan-2-carboxylic acid methyl ester] | 21 | 
2 |  |  | 1800 | 13 |  |  |  | CS(=O)(=O)CCNC(=O)c1ccc(-c2ccc3ncnc(Nc4ccc(OCc5ccccc5)cc4)c3c2)o1 [Example 53, 5-[4-(4-Benzyloxy-phenylamino)-quinazolin-6-yl]-furan-2-carboxylic acid (2-methanesulphonyl-ethyl)-amide hydrochloride] | 36 | 
3 | 24 | 280 | 140 |  |  |  |  | CNS(=O)(=O)CCNCc1ccc(-c2ccc3ncnc(Nc4ccc(OCc5ccccc5)cc4)c3c2)o1 [Example 54, 2-((5-(4-(4-Benzyloxy-phenylamino)-quinazolin-6-yl)-furan-2-ylmethyl)-amino)-ethanesulphonic acid methylamide] | 7.4 | 
4 | 10 | 1000 | 2000 |  |  |  |  | Cc1noc(-c2ccc3ncnc(Nc4ccc5c(cnn5Cc5ccccc5)c4)c3c2)n1 [Example 55, (1-Benzyl-1H-indazol-5-yl)-(6-(3-methyl-1,2,4-oxadiazol-5-yl)-quinazolin-4-yl)-amine hydrochloride] | 20 | 
5 | 260 | > 10000 | 1700 |  |  |  |  | Cc1nc(-c2ccc3ncnc(Nc4ccc(OCc5ccccc5)cc4)c3c2)no1 [Example 56, (4-Benzyloxy-phenyl)-(6-(5-methyl-1,2,4-oxadiazol-3-yl)-quinazolin-4-yl)-amine] | > 50 | 
6 | 83 |  | 1200 |  |  |  |  | CN(C)CCc1nc(-c2ccc3ncnc(Nc4ccc(OCc5ccccc5)cc4)c3c2)no1 [Example 57, (4-Benzyloxy-phenyl)-(6-(5-(2-dimethylamino-ethyl)-1,2,4-oxadiazol-3-yl)-quinazolin-4-yl)-amine] | 2.7 | 
7 | 6 |  | 8600 |  |  |  |  | CN(C)Cc1nc(-c2ccc3ncnc(Nc4ccc(OCc5ccccc5)cc4)c3c2)no1 [Example 58, (4-Benzyloxy-phenyl)-(6-(5-(dimethylaminomethyl)-1,2,4-oxadiazol-3-yl)-quinazolin-4-yl)-amine] | 28 | 
8 |  |  | 790 | 11 |  |  |  | CS(=O)(=O)CCNCc1nc(-c2ccc3ncnc(Nc4ccc5c(cnn5Cc5ccccc5)c4)c3c2)no1 [Example 59, (1-Benzyl-1H-indazol-5-yl)-(6-(5-(((2-methanesulphonyl-ethyl)-amino)-methyl)-1,2,4-oxadiazol-3-yl)-quinazolin-4-yl)-amine] | 11 | 
9 |  |  | 540 | 1900 |  |  |  | CS(=O)(=O)Cc1nc(-c2ccc3ncnc(Nc4ccc5c(cnn5Cc5ccccc5)c4)c3c2)no1 [Example 60, (1-Benzyl-1H-indazol-5-yl)-(6-(5-methanesulphonylmethyl-1,2,4-oxadiazol-3-yl)-quinazolin-4-yl)-amine] | 50 | 
10 |  |  | 500 | 810 |  |  |  | Cc1nc(-c2ccc3ncnc(Nc4ccc5c(cnn5Cc5ccccc5)c4)c3c2)no1 [Example 61] | 3.1 | 
11 | 130 | 9700 | 2100 |  |  |  |  | Cc1nocc1-c1ccc2ncnc(Nc3ccc(OCc4ccccc4)cc3)c2c1 [Example 85, (4-Benzyloxy-phenyl)-(6-(3-methyl-[1,2]oxazol-4-yl)-quinazolin-4-yl)-amine] | 2.3 | 

Continued, compound first:

Row | SMILES | IC50 [1, 6] [nM] | IC50 [2] [nM] | GI50 [3, 7] [nM] | IC50 [5, 9] [nM] | IC50 [5] [nM] | IC50 [1] [nM] | GI50 ([3]; read-out: Cell Proliferation HB4a erbB-2; 4 days at 37° C., methylene blue staining) [nM] | IC50 [4, 8] [µM] | IC50 [4] [µM]
12 | c1ccc(COc2ccc(Nc3ncnc4ccc(-c5ccco5)cc34)cc2)cc1 [Example 1, (4-Benzyloxy-phenyl)-(6-furan-2-yl-quinazolin-4-yl)-amine] | 40 | 2500 |  |  |  |  |  |  | 
13 | c1ccc(COc2ccc(Nc3ncnc4ccc(-c5ccccn5)cc34)cc2)cc1 [Example 3, (4-Benzyloxy-phenyl)-(6-(pyridin-2-yl)-quinazolin-4-yl)-amine] | 29 | 8600 | 23000 |  |  |  |  | 16 | 
14 | c1ccc(COc2ccc(Nc3ncnc4ccc(-c5ncccn5)cc34)cc2)cc1 [Example 4, (4-Benzyloxy-phenyl)-(6-(pyrimidin-2-yl)-quinazolin-4-yl)-amine] | 35 | 6400 |  |  |  |  |  | 50 | 
15 | Cn1nncc1-c1ccc2ncnc(Nc3ccc(OCc4ccccc4)cc3)c2c1 [Example 8, (4-Benzyloxy-phenyl)-(6-(3-methyl-1,2,3-triazol-4-yl)-quinazolin-4-yl)-amine] | 150 | > 10000 |  |  |  |  |  |  | 
16 | O=Cc1ccc(-c2ccc3ncnc(Nc4ccc(OCc5ccccc5)cc4)c3c2)o1 [Example 9, 5-(4-(4-Benzyloxy-phenylamino)-quinazolin-6-yl)-furan-2-carbaldehyde] | 24 | 430 | 550 |  |  |  |  | 5.7 | 
17 | Cc1nnc(-c2ccc3ncnc(Nc4ccc(Oc5ccccc5)cc4)c3c2)o1 [Example 20, (4-Phenoxy-phenyl)-(6-(5-methyl-1,3,4-oxadiazol-2-yl)quinazolin-4-yl)-amine hydrochloride] | 3 |  | 6200 | 140 |  |  |  | > 50 | 
18 | Cc1nnc(-c2ccc3ncnc(Nc4ccc5c(cnn5Cc5ccccc5F)c4)c3c2)o1 [Example 21, (1-(2-Fluorobenzyl)-1H-indazol-5-yl)-(6-(5-methyl-1,3,4-oxadiazol-2-yl)-quinazolin-4-yl-amine hydrochloride] | 9 |  | 2300 | 28 |  |  |  | > 50 | 
19 | Cc1nnc(-c2ccc3ncnc(Nc4ccc5c(cnn5Cc5ccccn5)c4)c3c2)o1 [Example 23, (1-Pyridin-2-ylmethyl)-1H-indazol-5-yl)-(6-(5-methyl-1,3,4-oxadiazol-2-yl)-quinazolin-4-yl)-amine hydrochloride] | 1 |  | 31000 | 32 |  |  |  | > 50 | 
20 | Cc1nnc(-c2ccc3ncnc(Nc4ccc5c(cnn5Cc5cc(F)cc(F)c5)c4)c3c2)o1 [Example 31, (1-(3,5-Difluoro-benzyl)-1H-indazol-5-yl)-(6-(5-methyl-1,3,4-oxadiazol-2-yl)-quinazolin-4-yl)-amine hydrochloride] |  |  | 1100 |  | 9 |  |  | > 50 | 
21 | c1ccc(COc2ccc(Nc3ncnc4ccc(-c5nnn[nH]5)cc34)cc2)cc1 [Example 40, (4-Benzyloxy-phenyl)-(6-(1H-tetrazol-5-yl)-quinazolin-4-yl)-amine] | 3 | 970 | > 50000 |  |  |  |  | > 50 | 
22 | Cc1nnc(-c2ccc3ncnc(Nc4ccc5c(cnn5Cc5ccccc5)c4)c3c2)[nH]1 [Example 42, (1-Benzyl-1H-indazol-5-yl)-(6-(5-methyl-1,3,4-triazol-2-yl)-quinazolin-4-yl)-amine] | 7 |  | 570 |  |  |  |  | 20 | 
23 | Cc1cc(-c2ccc3ncnc(Nc4ccc(OCc5ccccc5)cc4)c3c2)on1 [Example 47, (4-Benzyloxy-phenyl)-(-6-(3-methylisoxazol-5-yl)-quinazolin-4-yl)-amine hydrochloride] | 490 | 5000 |  |  |  |  |  |  | 
24 | CN(CCS(C)(=O)=O)Cc1ccc(-c2ccc3ncnc(Nc4ccc(OCc5ccccc5)cc4)c3c2)o1 [Example 48, (4-Benzyloxy-phenyl)-(6-(5-(((2-methanesulphonyl-ethyl)-methyl-amino)-methyl)-furan-2-yl)-quinazolin-4-yl)-amine] | 38 | 1100 | 80 |  |  |  |  | 9.5 | 
25 | CS(=O)(=O)NCCNCc1ccc(-c2ccc3ncnc(Nc4ccc(OCc5ccccc5)cc4)c3c2)o1 [Example 49, N-(2-((5-(4-(4-Benzyloxy-phenylamino)-quinazolin-6-yl)-furan-2-ylmethyl)-amino) -ethyl)-methanesulphonamide dihydrochloride] |  |  |  |  |  | 33 | 470 |  | 3.5
26 | NS(=O)(=O)CCNCc1ccc(-c2ccc3ncnc(Nc4ccc(OCc5ccccc5)cc4)c3c2)o1 [Example 50, 2-((5-(4-(4-Benzyloxy-phenylamino)-quinazolin-6-yl)-furan-2-ylmethyl)-amino)-ethanesulphonic acid amide] | 12 | 100 | 860 |  |  |  |  | 7.1 | 
